This assay concerns the target T1, OGDH (Rattus norvegicus, UniProt Q5XI78).
T1 sequence (Q5XI78 41-1023): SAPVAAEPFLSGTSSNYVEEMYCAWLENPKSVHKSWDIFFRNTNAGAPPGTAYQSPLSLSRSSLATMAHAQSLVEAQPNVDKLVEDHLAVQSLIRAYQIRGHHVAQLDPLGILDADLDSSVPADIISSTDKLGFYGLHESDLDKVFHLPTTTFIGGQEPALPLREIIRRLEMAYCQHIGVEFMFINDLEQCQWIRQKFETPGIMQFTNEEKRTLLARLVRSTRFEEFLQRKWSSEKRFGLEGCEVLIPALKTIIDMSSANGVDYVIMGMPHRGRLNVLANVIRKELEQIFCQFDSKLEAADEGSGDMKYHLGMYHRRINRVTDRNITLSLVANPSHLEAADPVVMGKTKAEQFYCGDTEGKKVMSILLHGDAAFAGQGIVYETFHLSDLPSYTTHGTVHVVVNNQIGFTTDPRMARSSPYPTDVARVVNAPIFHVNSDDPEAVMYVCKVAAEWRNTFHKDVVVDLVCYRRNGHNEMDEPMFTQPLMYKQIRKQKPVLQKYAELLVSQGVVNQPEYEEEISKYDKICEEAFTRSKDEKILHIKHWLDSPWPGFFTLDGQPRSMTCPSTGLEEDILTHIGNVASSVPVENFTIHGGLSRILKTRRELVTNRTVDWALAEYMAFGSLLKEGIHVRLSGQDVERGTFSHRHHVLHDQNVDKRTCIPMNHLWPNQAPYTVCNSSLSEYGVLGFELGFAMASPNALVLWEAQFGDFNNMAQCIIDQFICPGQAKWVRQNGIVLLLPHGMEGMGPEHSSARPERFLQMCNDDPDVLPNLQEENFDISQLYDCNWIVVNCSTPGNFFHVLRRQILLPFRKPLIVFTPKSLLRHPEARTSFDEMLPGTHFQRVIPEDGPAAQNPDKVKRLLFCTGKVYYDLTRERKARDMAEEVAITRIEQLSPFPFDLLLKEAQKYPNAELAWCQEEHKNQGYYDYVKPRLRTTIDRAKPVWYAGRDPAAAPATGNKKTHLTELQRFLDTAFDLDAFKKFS
T1 sequence (Q01205 69-454 partner): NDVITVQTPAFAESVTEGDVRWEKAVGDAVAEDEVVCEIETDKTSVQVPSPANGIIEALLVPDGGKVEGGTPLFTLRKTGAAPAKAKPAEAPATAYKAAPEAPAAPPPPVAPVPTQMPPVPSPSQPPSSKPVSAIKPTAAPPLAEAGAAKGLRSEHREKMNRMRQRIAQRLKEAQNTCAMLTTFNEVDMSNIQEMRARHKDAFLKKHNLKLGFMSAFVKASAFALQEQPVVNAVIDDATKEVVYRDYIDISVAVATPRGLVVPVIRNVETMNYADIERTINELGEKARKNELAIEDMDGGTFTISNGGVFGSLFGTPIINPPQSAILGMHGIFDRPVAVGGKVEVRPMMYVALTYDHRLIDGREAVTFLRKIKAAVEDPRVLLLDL
T1 sequence (Q6P6R2 36-509 partner): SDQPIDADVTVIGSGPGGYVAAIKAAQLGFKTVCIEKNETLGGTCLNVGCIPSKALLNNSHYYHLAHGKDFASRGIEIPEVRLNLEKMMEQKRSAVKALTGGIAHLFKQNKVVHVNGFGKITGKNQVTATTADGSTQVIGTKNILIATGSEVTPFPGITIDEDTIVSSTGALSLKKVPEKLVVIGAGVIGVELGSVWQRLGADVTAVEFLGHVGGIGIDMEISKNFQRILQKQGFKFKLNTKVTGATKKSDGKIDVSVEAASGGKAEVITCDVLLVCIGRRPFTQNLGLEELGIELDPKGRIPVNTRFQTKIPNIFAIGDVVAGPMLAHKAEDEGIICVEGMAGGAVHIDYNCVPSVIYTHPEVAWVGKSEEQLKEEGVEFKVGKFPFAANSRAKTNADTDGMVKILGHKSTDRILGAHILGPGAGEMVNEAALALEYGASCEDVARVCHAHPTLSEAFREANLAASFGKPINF
Briefly: OADH reaction (OA saturation) catalyzed by the enzyme preparation from rat heart. The settings on record: for Ki / Amax: OADH reaction, heart. Also on record: the tissue fractions with the complexes enriched to a degree allowing for a robust detection of the enzymatic activities, have been used; from tissue; host or cells: rat heart. Format: biochemical. The procedure: Enzymes catalyzing OGDH and OADH reactions were enriched from rat hearts and livers using polyethylene glycol precipitation, as previously described (Artiukhov et al., [2020]).
The enzyme activities were assayed in the medium (pH 7.0) containing 50 mM MOPS, 1 mM ThDP, 1 mM MgCl2, 1 mM CaCl2, 1 mM dithiothreitol 0.15 mM Coenzyme A, 0.25 mM NAD^+ and various concentrations of 2-oxo substrates (0–10 mM OG or OA) and their phosphonate analogs (0–5,000 μM SP, GP, or AP). Reactions were started by addition of the enzyme preparations to the assay media. The amount of enzyme preparations (0.074 mg protein for the preparation from liver and 0.023 mg protein for the preparation from heart) were chosen to induce the lowest reliably measured reaction rate (ΔA340 = 0.001/min) at 0.01 mM OA without the phosphonates.
Reaction rates were calculated from linear parts of the product accumulation curves (up to 10 min, dependent on the reaction rate), excluding the initial region, where mixing the reagents and solubilization of the preparation affected the optical density.
Non-linear regression was used to approximate the experimental dependences of the reaction rates on the OG or OA concentration according to the Michaelis-Menten equation ( a=Amax*[S]/Km+[S] ) or its sum ( a=Amax*[S]/Km+[S]+Amax,2*[S]/Km,2+[S] ). The former equation describes one type of the active sites. […] The assumption was based on the presence of the two enzymes, OGDH and OADH, in the employed preparations.
The kinetic data were also analyzed by linear regression, using the known methods of the linearization of the Michaelis-Menten equation in the Lineweaver-Burk ( 1/a=1/Amax(1+Km/[S]) ) and Eadie-Hofstee ( a=Amax−Kmv/[S] ) coordinates. Due to the several orders of magnitude difference in the values of Km,1 and Km,2, the linear regression required separate analysis of the dependencies in the intervals of the low and high concentrations of 2-oxoadipate. The Km and Amax values obtained in independent experiments using the non-linear and linear regression analyses of the experimental data, were averaged and presented as Mean ± Standard Error of Mean.
To determine the inhibition constants (Ki), the effective values of Kmeff and Amaxeff , calculated from the hyperbolic or linear approximations as described above, were plotted against the concentration of the inhibitors ([I]). The linear regression of the equation Kmeff/Amaxeff=Km/Amax(1+[I]/Ki) , (Cornish-Bowden, [1979]) was applied to find the Intercept (Km/Amax) and Slope (Km/(Amax*Ki)) of a dependence. The values of Ki were determined as the ratio of the corresponding Intercepts to the Slopes. In the two-site model, the Ki(1) and Ki(2) were calculated separately from the linear approximations of Km,1eff/Amax,1eff vs. [I] and Km,2eff/Amax,2eff vs. [I] dependences, respectively. The standard errors of Ki were determined from means and standard errors of the Intercepts and the Slopes, using the previously described formula for standard deviation of a fraction (Bunik et al., [1999]). The Ki values obtained from the non-linear and linear regression analyses of the experimental data were averaged and presented as Mean ± Standard Error of Mean.

Setting [1] is: 0–10 mM OA, Michaelis-Menten, read-out: Ki, MM.
Setting [2] is: Eadie-Hofstee, read-out: Ki, EH.
Setting [3] is: Lineweaver-Burk, read-out: Ki, LB.
[4] abbreviates: average of MM, LB, EH, read-out: Ki, Average.

The record followed here is PMC7835950 (Frontiers in Chemistry, 2021).

Where two headings read alike, the source gives them in different places.

In the case of `O=C(O)CCCCC(=O)P(=O)(O)O` [AP, adipoyl phosphonate], the Ki is 49 ± 8 µM under setting [1], 40 ± 7 µM under setting [2], 58 ± 8 µM under setting [3] and 49 ± 5 µM under setting [4]. Moreover, the Amax is given as 0.101 ± 0.002 µmol/min per mg of protein ([I] 0.5 µM); 0.096 ± 0.002 µmol/min per mg of protein ([I] 2 µM); 0.098 ± 0.002 µmol/min per mg of protein ([I] 10 µM); 0.109 ± 0.002 µmol/min per mg of protein ([I] 50 µM); 0.116 ± 0.002 µmol/min per mg of protein ([I] 200 µM).

For `O=C(O)CCCC(=O)C(=O)O` [OA, 2-oxoadipate], under “heart preparation”, the “Amax, OA saturation” value was 0.102 ± 0.008 μmol/min per mg of protein.

In the case of `O=C(O)CCCC(=O)P(=O)(O)O` [GP, glutaryl phosphonate], the inhibition constant Ki is 3.8 ± 0.1 µM under setting [1], 3.4 ± 0.5 µM under setting [2], 1.1 ± 0.2 µM under setting [3] and 2.8 ± 0.8 µM under setting [4]. The Amax ([I] 2 µM) is listed as 0.105 ± 0.003 µmol/min per mg of protein, the Amax ([I] 10 µM) is listed as 0.131 ± 0.002 µmol/min per mg of protein, the Amax ([I] 50 µM) is listed as 0.139 ± 0.010 µmol/min per mg of protein and the Amax ([I] 200 µM) is reported as 0.103 ± 0.018 µmol/min per mg of protein.

`O=C(O)CCC(=O)P(=O)(O)O` [SP, succinyl phosphonate]: the inhibition constant (Ki) was found to be 10.2 ± 0.2 µM under setting [1], 6.3 ± 0.1 µM under setting [2], 4.7 ± 0.3 µM under setting [3] and 7.1 ± 1.6 µM under setting [4]. The Amax is given as 0.109 ± 0.001 µmol/min per mg of protein ([I] 10 µM), 0.109 ± 0.006 µmol/min per mg of protein ([I] 50 µM), 0.106 ± 0.004 µmol/min per mg of protein ([I] 200 µM) and 0.075 ± 0.123 µmol/min per mg of protein ([I] 1000 µM).

By Ki is commonly meant a measure of affinity in units of concentration, obtained from inhibition or displacement.
